The source of these data is patent publication US20120270954A1, “METHODS FOR MAINTAINING EYE HEALTH AND AMELIORATING OPTHALMIC MALADIES IN CANINES” (priority 2009, published 2012).

For data set [1] the following is noted: previous studies, humans regularly consume β-carotene in their diets; cited from earlier work.
The format of data set [2] is in vivo. The conditions noted are these: for Antioxidant level in Cortical/Epithelial Layer (C) of dog lens / Antioxidant level in Nuclear Layer (N) of dog lens: lenses of seven dogs. The procedure: Eye samples were collected from seven (7) dogs. Eye balls were removed within 1 hour of death at necropsy, stored in individual containers at 4° C., and stored on wet ice for dissection within one day. The eyes were dissected to take out lenses. The lenses were separated into two layers: (1) an outer, soft cortical/epithelial layer and (2) an inner, hard nuclear layer. The layers were analyzed for carotenoids, vitamin C, and vitamin E following standard procedures given in Craft N E, Haitema T B, Garnett K M, Fitch K A, Dorey C K. Carotenoid, tocopherol, and retinol concentrations in elderly human brain. J Nutr. Health Aging 2004; 8:156-62.

Like-named read-outs stand apart in the source and are kept apart here.

Regarding `CC1=C(/C=C/C(C)=C/C=C/C(C)=C/C=C/C=C(C)/C=C/C=C(C)/C=C/C2=C(C)CCCC2(C)C)C(C)(C)CCC1` [β-Carotene, β-carotene], the “detection or accumulation in human lenses” value in data set [1] is reported as “not detected or accumulated in human lenses”. For the same compound, the “β-Carotene concentration in lens layer” value in data set [2] (Dog 1, BEA, M/n, age 15.50, layer N) amounted to 0.79 ng/g; in data set [2] (Dog 2, BEA, M/n, age 13.55, layer C), 1.06 ng/g; in data set [2] (Dog 2, BEA, M/n, age 13.55, layer N), 0.60 ng/g; in data set [2] (Dog 3, LAB, F/s, age 13.41, layer C), 0.73 ng/g; in data set [2] (Dog 3, LAB, F/s, age 13.41, layer N) it was 1.26 ng/g; in data set [2] (Dog 4, LAB, M/n, age 14.22, layer C) it was 0.71 ng/g. Moreover, the “β-Carotene concentration in lens layer” value in data set [2] (Dog 4, LAB, M/n, age 14.22, layer N) is on record as 0.79 ng/g; in data set [2] (Dog 5, Man T, F/s, age 12.79, layer C), 1.35 ng/g; in data set [2] (Dog 5, Man T, F/s, age 12.79, layer N), 1.60 ng/g; in data set [2] (Dog 6, SIB HUSKY, M/n, age 6.10, layer C) it was 4.26 ng/g; in data set [2] (Dog 6, SIB HUSKY, M/n, age 6.10, layer N), 8.17 ng/g; in data set [2] (Dog 7, LAB, F/s, age 9.31, layer C) it was 2.35 ng/g. Besides, in data set [2] (Dog 7, LAB, F/s, age 9.31, layer N), the “β-Carotene concentration in lens layer” value came out at 5.99 ng/g. Further, the “cortical layer samples that accumulated β-carotene” value in data set [2] (dog lens, cortical layer, seven dogs) was “six out of seven cortical layer samples accumulated”. Moreover, the “nuclear layer samples that accumulated β-carotene” value in data set [2] (dog lens, nuclear layer, seven dogs) was “all nuclear layer samples accumulated”. Also, the “Antioxidant level in Cortical/Epithelial Layer (C) of dog lens” value in data set [2] is 0.00174 µg/g. The “Antioxidant level in Nuclear Layer (N) of dog lens” value (“Antioxidant level in Nuclear Layer” for short) in data set [2] (nuclear layer) was determined as 0.00274 µg/g.

For the compound vitamin E, the “Antioxidant level in Cortical/Epithelial Layer (C) of dog lens” value in data set [2] was determined as 0.93 µg/g. Further, in data set [2] (nuclear layer), the “Antioxidant level in Nuclear Layer” value turned out to be 0.64 µg/g.

Consider `O=C1O[C@H]([C@@H](O)CO)C(O)=C1O` [Vitamin C, vitamin C], for which, in data set [2], the “Antioxidant level in Cortical/Epithelial Layer (C) of dog lens” value turned out to be 112.38 µg/g. The “Antioxidant level in Nuclear Layer” value in data set [2] (nuclear layer) was 23.59 µg/g.
